From patent publication US20140343000A1 (priority 2011, published 2014)

These molecules were tested on recombinant NL4-3 virus (Renilla luciferase in nef, Gag P373S; NLRluc) in MT-2 cells (assay: whole plant or invertebrate). Details: Renilla, NL43, luciferase activity in cells infected for 4-5 days with NLRluc recombinants, serial dilutions of inhibitor; class symbols (key in Table 1); read-out: EC50.
Assay type: cell-based, HIV
Method in brief: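 MT-2 cells in RPMI 1640 with 10% heat-inactivated FBS were infected with the reporter virus, made by transfecting the proviral clone into 293T cells, and cultured 4-5 days with serial inhibitor dilutions. Antiviral activity was quantified from Renilla luciferase activity measured in lysed cells.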

Row | SMILES | EC50 [nM]
1 | C=C(C)[C@@H]1CC[C@]2(NC(=O)N3CCNC(C(=O)O)C3)CC[C@]3(C)[C@H](CC[C@@H]4[C@@]5(C)CC=C(c6ccc(C(=O)O)cc6)C(C)(C)[C@@H]5CC[C@]43C)[C@@H]12 (mixture of isomers) [Example 63, 4-((1R,3aS,5aR,5bR,7aR,11aS,11bR,13aR,13bR)-9-(4-carboxyphenyl)-5a,5b,8,8,11a-pentamethyl-1-(prop-1-en-2-yl)-2,3,3a,4,5,5a,5b,6,7,7a,8,11,11a,11b,12,13,13a,13b-octadecahydro-1H-cyclopenta[a]chrysen-3a-ylcarbamoyl)piperazine-2-carboxylic acid] | < 100
2 | C=C(C)[C@@H]1CC[C@]2(NC(=O)C(=O)Nc3nccs3)CC[C@]3(C)[C@H](CC[C@@H]4[C@@]5(C)CC=C(c6ccc(C(=O)O)cc6)C(C)(C)[C@@H]5CC[C@]43C)[C@@H]12 [Example 79, 4-((1R,3aS,5aR,5bR,7aR,11aS,11bR,13aR,13bR)-5a,5b,8,8,11a-pentamethyl-3a-(2-oxo-2-(thiazol-2-ylamino)acetamido)-1-(prop-1-en-2-yl)-2,3,3a,4,5,5a,5b,6,7,7a,8,11,11a,11b,12,13,13a,13b-octadecahydro-1H-cyclopenta[a]chrysen-9-yl)benzoic acid] | < 100
3 | C=C(C)[C@@H]1CC[C@]2(NCCN3CCN(C(=O)CC)CC3)CC[C@]3(C)[C@H](CC[C@@H]4[C@@]5(C)CC=C(c6ccc(C(=O)O)cc6)C(C)(C)[C@@H]5CC[C@]43C)[C@@H]12 [Example B60, 4-((1R,3aS,5aR,5bR,7aR,11aS,11bR,13aR,13bR)-5a,5b,8,8,11a-pentamethyl-1-(prop-1-en-2-yl)-3a-((2-(4-propionylpiperazin-1-yl)ethyl)amino)-2,3,3a,4,5,5a,5b,6,7,7a,8,11,11a,11b,12,13,13a,13b-octadecahydro-1H-cyclopenta[a]chrysen-9-yl)benzoic acid] | < 100
4 | C=C(C)[C@@H]1CC[C@]2(NCC)CC[C@]3(C)[C@H](CC[C@@H]4[C@@]5(C)CC=C(c6ccc(C(=O)O)cc6)C(C)(C)[C@@H]5CC[C@]43C)[C@@H]12 [Example 180, 4-((1R,3aS,5aR,5bR,7aR,11aS,11bR,13aR,13bR)-3a-(ethylamino)-5a,5b,8,8,11a-pentamethyl-1-(prop-1-en-2-yl)-2,3,3a,4,5,5a,5b,6,7,7a,8,11,11a,11b,12,13,13a,13b-octadecahydro-1H-cyclopenta[a]chrysen-9-yl)benzoic acid] | < 100
5 | C=C(C)[C@@H]1CC[C@]2(NCCN3CCN(S(=O)(=O)c4cccnc4)CC3)CC[C@]3(C)[C@H](CC[C@@H]4[C@@]5(C)CC=C(c6ccc(C(=O)O)cc6)C(C)(C)[C@@H]5CC[C@]43C)[C@@H]12 [Example B36, 4-((1R,3aS,5aR,5bR,7aR,11aS,11bR,13aR,13bR)-5a,5b,8,8,11a-pentamethyl-1-(prop-1-en-2-yl)-3a-((2-(4-(pyridin-3-ylsulfonyl)piperazin-1-yl)ethyl)amino)-2,3,3a,4,5,5a,5b,6,7,7a,8,11,11a,11b,12,13,13a,13b-octadecahydro-1H-cyclopenta[a]chrysen-9-yl)benzoic acid] | < 100
6 | C=C(C)[C@@H]1CC[C@]2(NC(=O)N(C)CCCN(C)C)CC[C@]3(C)[C@H](CC[C@@H]4[C@@]5(C)CC=C(c6ccc(C(=O)O)cc6)C(C)(C)[C@@H]5CC[C@]43C)[C@@H]12 [Example 46, 4-((1R,3aS,5aR,5bR,7aR,11aS,11bR,13aR,13bR)-3a-(3-(3-(dimethylamino)propyl)-3-methylureido)-5a,5b,8,8,11a-pentamethyl-1-(prop-1-en-2-yl)-2,3,3a,4,5,5a,5b,6,7,7a,8,11,11a,11b,12,13,13a,13b-octadecahydro-1H-cyclopenta[a]chrysen-9-yl)benzoic acid] | < 100
7 | CC(C)[C@@H]1CC[C@]2(NCCN3CCC(S(C)(=O)=O)CC3)CC[C@]3(C)[C@H](CC[C@@H]4[C@@]5(C)CC[C@H](c6ccc(C(=O)O)cc6)C(C)(C)[C@@H]5CC[C@]43C)[C@@H]12 [Example B18, 4-((1S,3aS,5aR,5bR,7aS,9S,11aS,11bR,13aR,13bR)-1-isopropyl-5a,5b,8,8,11a-pentamethyl-3a-((2-(4-(methylsulfonyl)piperidin-1-yl)ethyl)amino)icosahydro-1H-cyclopenta[a]chrysen-9-yl)benzoic acid] | < 100
8 | C=C(C)[C@@H]1CC[C@]2(NC(=O)[C@@H]3C[C@H](NC(=O)OCc4ccccc4)C3(C)C)CC[C@]3(C)[C@H](CC[C@@H]4[C@@]5(C)CC=C(c6ccc(C(=O)O)cc6)C(C)(C)[C@@H]5CC[C@]43C)[C@@H]12 [Example 130-3, 4-((1R,3aS,5aR,5bR,7aR,11aS,11bR,13aR,13bR)-3a-((1R,3S)-3-(((benzyloxy)carbonyl)amino)-2,2-dimethylcyclobutanecarboxamido)-5a,5b,8,8,11a-pentamethyl-1-(prop-1-en-2-yl)-2,3,3a,4,5,5a,5b,6,7,7a,8,11,11a,11b,12,13,13a,13b-octadecahydro-1H-cyclopenta[a]chrysen-9-yl)benzoic acid] | < 100
9 | C=C(C)[C@@H]1CC[C@]2(NC(=O)[C@@H]3CC(F)(F)CN3C(=O)OC(C)(C)C)CC[C@]3(C)[C@H](CC[C@@H]4[C@@]5(C)CC=C(c6ccc(C(=O)O)cc6)C(C)(C)[C@@H]5CC[C@]43C)[C@@H]12 [Example 114, 4-((1R,3aS,5aR,5bR,7aR,11aS,11bR,13aR,13bR)-3a-((S)-1-(tert-butoxycarbonyl)-4,4-difluoropyrrolidine-2-carboxamido)-5a,5b,8,8,11a-pentamethyl-1-(prop-1-en-2-yl)-2,3,3a,4,5,5a,5b,6,7,7a,8,11,11a,11b,12,13,13a,13b-octadecahydro-1H-cyclopenta[a]chrysen-9-yl)benzoic acid] | < 100
10 | C=C(C)[C@@H]1CC[C@]2(NCCNS(=O)(=O)C3CC3)CC[C@]3(C)[C@H](CC[C@@H]4[C@@]5(C)CC=C(c6ccc(C(=O)O)cc6)C(C)(C)[C@@H]5CC[C@]43C)[C@@H]12 [Example B31, 4-((1R,3aS,5aR,5bR,7aR,11aS,11bR,13aR,13bR)-3a-((2-(cyclopropanesulfonamido)ethyl)amino)-5a,5b,8,8,11a-pentamethyl-1-(prop-1-en-2-yl)-2,3,3a,4,5,5a,5b,6,7,7a,8,11,11a,11b,12,13,13a,13b-octadecahydro-1H-cyclopenta[a]chrysen-9-yl)benzoic acid] | < 100
11 | C=C(C)[C@@H]1CC[C@]2(NCCN3CCCCS3(=O)=O)CC[C@]3(C)[C@H](CC[C@@H]4[C@@]5(C)CC=C(c6ccc(C(=O)O)cc6)C(C)(C)[C@@H]5CC[C@]43C)[C@@H]12 [Example B32, 4-((1R,3aS,5aR,5bR,7aR,11aS,11bR,13aR,13bR)-3a-((2-(1,1-dioxido-1,2-thiazinan-2-yl)ethyl)amino)-5a,5b,8,8,11a-pentamethyl-1-(prop-1-en-2-yl)-2,3,3a,4,5,5a,5b,6,7,7a,8,11,11a,11b,12,13,13a,13b-octadecahydro-1H-cyclopenta[a]chrysen-9-yl)benzoic acid] | < 100
12 | CC(C)[C@@H]1CC[C@]2(NC(=O)CN3CCS(=O)(=O)CC3)CC[C@]3(C)[C@H](CC[C@@H]4[C@@]5(C)CC[C@H](c6ccc(C(=O)O)cc6)C(C)(C)[C@@H]5CC[C@]43C)[C@@H]12 [Example 130, 4-((1S,3aS,5aR,5bR,7aS,9S,11aS,11bR,13aR,13bR)-3a-(((1,1-dioxido-4-thiomorpholinyl)acetyl)amino)-1-isopropyl-5a,5b,8,8,11a-pentamethylicosahydro-1H-cyclopenta[a]chrysen-9-yl)benzoic acid] | < 100
13 | C=C(C)[C@@H]1CC[C@]2(NCCN3CCC(S(C)(=O)=O)CC3)CC[C@]3(C)[C@H](CC[C@@H]4[C@@]5(C)CC=C(c6ccc(C(=O)O)cc6)C(C)(C)[C@@H]5CC[C@]43C)[C@@H]12 [Example B14, 4-((1R,3aS,5aR,5bR,7aR,11aS,11bR,13aR,13bR)-5a,5b,8,8,11a-pentamethyl-3a-((2-(4-(methylsulfonyl)piperidin-1-yl)ethyl)amino)-1-(prop-1-en-2-yl)-2,3,3a,4,5,5a,5b,6,7,7a,8,11,11a,11b,12,13,13a,13b-octadecahydro-1H-cyclopenta[a]chrysen-9-yl)benzoic acid] | < 100

Same assay, conditions: Renilla, NL43, luciferase activity in cells infected for 4-5 days with NLRluc recombinants, serial dilutions of inhibitor; numeric values; read-out: EC50

Row | SMILES | EC50 [nM]
14 | C=C(C)[C@@H]1CC[C@]2(NCC3CCCNC3)CC[C@]3(C)[C@H](CC[C@@H]4[C@@]5(C)CC=C(c6ccc(C(=O)O)cc6)C(C)(C)[C@@H]5CC[C@]43C)[C@@H]12 (stereo partly drawn) [Example 175, 4-((1R,3aS,5aR,5bR,7aR,11aS,11bR,13aR,13bR)-5a,5b,8,8,11a-pentamethyl-3a-(piperidin-3-ylmethylamino)-1-(prop-1-en-2-yl)-2,3,3a,4,5,5a,5b,6,7,7a,8,11,11a,11b,12,13,13a,13b-octadecahydro-1H-cyclopenta[a]chrysen-9-yl)benzoic acid] | 10
15 | C=C(C)[C@@H]1CC[C@]2(N(CC(=O)CC)c3nc(CC)cs3)CC[C@]3(C)[C@H](CC[C@@H]4[C@@]5(C)CC=C(c6ccc(C(=O)O)cc6)C(C)(C)[C@@H]5CC[C@]43C)[C@@H]12 [Example 184A, 4-((1R,3aS,5aR,5bR,7aR,11aS,11bR,13aR,13bR)-3a-((4-ethylthiazol-2-yl)(2-oxobutyl)amino)-5a,5b,8,8,11a-pentamethyl-1-(prop-1-en-2-yl)-2,3,3a,4,5,5a,5b,6,7,7a,8,11,11a,11b,12,13,13a,13b-octadecahydro-1H-cyclopenta[a]chrysen-9-yl)benzoic acid] | 390
